Experimental data as given in patent US6596863B2, “Medical composition containing nitroetheneamine Derivative or salt there of as active constituent” (Ishihara Sangyo Kaisha, Ltd., priority 1998, dated 2003).
Where two headings read alike, the source gives them in different places. Marks after values point to notes of the source that are not given here.

Tests used:
[1] = target: T1, human MMP-9 (gelatinase B) (Homo sapiens, UniProt P14780); test: Inhibition activity against human MMP-9 (gelatinase B), fluorescent peptide substrate; format: biochemical; conditions: compounds of the formula (I)
T1 construct: endogenous in cells; host or cells: HT1080 human fibrosarcoma cells (ATCC CCL-121), PMA-stimulated; enzyme purified from the culture supernatant
In short: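 MMP-9 purified from PMA-stimulated (10 ng/ml) HT1080 supernatant, or commercial enzyme (0.0125-0.025 unit/ml or 0.2 μg/ml final), incubated with compound and 10 μM final Mca-Pro-Leu-Gly-Leu-Dpa-Ala-Arg-NH2 fluorescent substrate at 37 °C for 3 h in the dark. Precursor enzyme activated with APMA.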

human MMP-7 = target: T2, human MMP-7 (Homo sapiens, UniProt P09237); test: Enzyme inhibition activity against MMP-7 (matrilysin), fluorescent peptide substrate NFF-2; format: biochemical; conditions: human MMP-7, substrate NFF-2, 37° C. for 2.5 hours
T2 construct: purchased Kabushiki Kaisha Yagai Chuo Kenkyusho YU-31001
T2 sequence (P09237 95-267): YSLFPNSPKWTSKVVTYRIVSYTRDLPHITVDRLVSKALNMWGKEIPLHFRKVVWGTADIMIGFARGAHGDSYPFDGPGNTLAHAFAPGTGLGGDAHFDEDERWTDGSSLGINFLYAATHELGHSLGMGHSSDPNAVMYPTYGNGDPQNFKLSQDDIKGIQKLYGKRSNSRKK
Experimental: The inhibition activity against human MMP-7 was measured by the same method as the method for MMP-3, by using a MMP-7 solution (0.025 unit/ml; No. YU-31001, manufactured by Kabushiki Kaisha Yagai Chuo Kenkyusho, purity: at least 99.9%) and a fluorescent peptide substrate MOCAc—Arg-Pro-Lys-Pro-Tyr—Ala-Nva-Trp-Met-Lys(Dnp) -NH2 [NFF-2, No. 3167-v, manufactured by Peptide Institute, Inc.]. The enzymatic reaction was carried out at 37° C. for 2.5 hours in a dark place, and the relative fluorescence intensity was measured at a fluorescence wavelength of 400 nm with an excitation wavelength of 327 nm.

[2] = test system: Colon 26/AD cells (mouse colon cancer); format: in vivo
Experimental: Colon 26 mouse colon cancer cells (obtained from Cancer Chemotherapy Center Foundation for Cancer Research) were transplanted subcutaneously to BALB/c mouse, 10 days later, the grown tumor was taken out. It was hashed in a Hanks equilibrium salt solution and passed through a metal mesh to obtain single cells, which were cultured in vitro (37° C., 5% CO2) (using 10% fetal bovine serum-containing Dulbecco's Modified Eagle Medium (D-5648, manufactured by Sigma Co.)). […] The same cell strain always produced and secreted MMP-2 in the supernatant of the in vitro culture, but when cultured by an addition of TNF-α (50 ng/ml) in the culture solution, it produced MMP-9 remarkably.
With reference to the method by Tsuruo et al (Japanese Journal of Cancer Research (Gann), Vol. 75, 193-198, 1984), the inhibition effects against experimental lung metastasis were evaluated. Namely, 3×10^4 Colon 26/AD cells (suspended in 0.2 ml of Minimum Essential Medium (manufactured by Nissui Seiyaku K. K.)) cultured in vitro were transplanted through the tail vein of a male BALB/c AnNCrj mouse (purchased from Charles River Japan, Inc.) of 6 weeks old (Day 0). In the case of Compound No. 37, it was suspended in a 1% Tween 80/physiological sodium chloride aqueous solution and intraperitoneally administered (administered in a volume of 10 ml/kg) immediately (within 5 minutes) before transplantation of the cells, 2 hours later and once per day on Day 1-4 and Day 7-11 (a total of 11 times). Further, in the case of Compound No. 157, it was dissolved in 100 mM Tris-HCl (pH 8.5)/150 mM NaCl and forcibly orally administered (administered in a volume of 10 ml/kg) by means of a metal sonde 30 minutes before transplantation of the cells, in the morning and evening of Day 1 and once per day on Day 2-4, Day 7-11 and Day 14 (a total of 12 times). To the vehicle control group, the respective solvents containing no test materials, were administered in the same manner. On Day 14 or Day 15, the lung of each mouse was taken out, and the weight was measured, and the metastatis inhibition rate was calculated in accordance with the following formula. [formula]
A is the weight of lung of the treated group
B is the average weight of lung of the normal group
C is the average weight of lung of the solvent control group.

[3] = 1st measurement, read-out: MMP-9 inhibition activities IC50, 1st
[4] = 2nd measurement, read-out: MMP-9 inhibition activities IC50, 2nd
[5] = average of 1st and 2nd (or single measurement), read-out: MMP-9 inhibition activities IC50, Average

T1 sequence (P14780 107-707 limits assumed): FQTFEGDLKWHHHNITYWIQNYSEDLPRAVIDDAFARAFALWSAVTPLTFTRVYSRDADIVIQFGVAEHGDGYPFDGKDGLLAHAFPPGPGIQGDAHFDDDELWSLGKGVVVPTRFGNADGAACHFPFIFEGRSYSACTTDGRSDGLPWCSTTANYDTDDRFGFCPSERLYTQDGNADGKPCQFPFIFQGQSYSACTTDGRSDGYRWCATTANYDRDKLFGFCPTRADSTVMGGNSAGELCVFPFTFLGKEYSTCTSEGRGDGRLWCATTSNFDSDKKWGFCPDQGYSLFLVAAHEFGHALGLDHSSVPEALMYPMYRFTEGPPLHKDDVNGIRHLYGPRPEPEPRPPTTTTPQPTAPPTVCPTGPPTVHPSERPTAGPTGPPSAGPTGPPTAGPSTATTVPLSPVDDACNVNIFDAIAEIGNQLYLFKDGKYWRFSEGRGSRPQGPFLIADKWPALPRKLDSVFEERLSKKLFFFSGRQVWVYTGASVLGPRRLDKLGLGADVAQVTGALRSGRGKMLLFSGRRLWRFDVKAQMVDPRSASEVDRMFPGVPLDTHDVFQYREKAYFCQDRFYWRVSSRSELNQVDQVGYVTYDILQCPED

| SMILES | IC50 [1, 3] | IC50 [1, 4] | IC50 [1, 5] | melting point | IC50 (human MMP-7) | Metastatis inhibition ratio (%) ([2]; 30 mg/kg × 11 times, intraperitoneal, Day 14) | Lung weight increase (g) against normal mouse ([2]; 30 mg/kg × 11 times, intraperitoneal, Day 14, vehicle control 0.189 ± 0.07) | Weight of lung (g) (Day 14) ([2]; 30 mg/kg × 11 times, intraperitoneal, Day 14, vehicle control 0.402, normal mouse 0.213) | inhibition ratio of experimental metastasis of Colon 26/AD to lung ([2]; 30 mg/kg, intraperitoneal administration, total of 11 times, male BALB/c mouse, from lung weight) |
| --- | --- | --- | --- | --- | --- | --- | --- | --- | --- |
| CNC(=C[N+](=O)[O-])NNc1cc(C(F)(F)F)cc(Cl)n1 [Compound No. 37] | 4.5 µM | 7 µM | 5.8 µM |  | 24.5 µM | 40.2%* | 0.113 ± 0.06 g | 0.326 g | 40.2% |
| CNC(=C[N+](=O)[O-])NNS(=O)(=O)c1ccccc1 [compound 109] | 20.8 µM | 26.9 µM | 23.9 µM | 169 to 170 °C (dec.) |  |  |  |  |  |
| COc1ccc(NC(=C[N+](=O)[O-])NN)cn1 [compound 115] | 31.8 µM | 26.5 µM | 29.2 µM | 162 to 165 °C |  |  |  |  |  |

Now from value to compound, other results behind:

| IC50 [1, 3] | IC50 [1, 4] | IC50 [1, 5] | melting point | SMILES | IC50 (human MMP-7) | Metastatis inhibition ratio (%) ([2]; 30 mg/kg × 11 times, intraperitoneal, Day 14) | Lung weight increase (g) against normal mouse ([2]; 30 mg/kg × 11 times, intraperitoneal, Day 14, vehicle control 0.189 ± 0.07) | Weight of lung (g) (Day 14) ([2]; 30 mg/kg × 11 times, intraperitoneal, Day 14, vehicle control 0.402, normal mouse 0.213) | inhibition ratio of experimental metastasis of Colon 26/AD to lung ([2]; 30 mg/kg, intraperitoneal administration, total of 11 times, male BALB/c mouse, from lung weight) |
| --- | --- | --- | --- | --- | --- | --- | --- | --- | --- |
| 10.1 µM | 15.8 µM | 13 µM | 192 °C (dec.) | CNC(=C[N+](=O)[O-])NNc1cc(C(F)(F)F)cc(SC)n1 [compound 125] |  |  |  |  |  |
| 12.3 µM |  | 12.3 µM | 197 °C (dec.) | CNC(=C[N+](=O)[O-])NNc1c(Cl)cncc1Cl [compound 186] |  |  |  |  |  |
| 10.1 µM | 13.2 µM | 11.7 µM | 207 °C (dec.) | CNC(=C[N+](=O)[O-])NNc1ccc(C(F)(F)F)cn1 [Compound No. 19] |  |  |  |  |  |
